# Source: paper PMC12418751, “Structural and functional characterization of IdeC, a novel IgG-specific protease of Streptococcus canis” (Infection and Immunity, 2025)
# Target: T1, IdeC (Immunoglobulin G degrading enzyme of S. canis) (Streptococcus canis, UniProt A0A3P5YAY8)
# T1 construct: gene ide; full-length construct 30-339 as printed for the C94S crystal form), His6 tag from pQE30, E. coli M15 pREP, Ni-TED purified, ~35 kDa, mainly monomer; printed PDB entries are of C94S forms
# Assay: feline and canine IgG cleavage, SDS-PAGE
# Assay type: biochemical
# Settings: 2.5 uM inhibitor, 30 min preincubation at room temperature; IgG 37 C 2.5 h; cysteine protease inhibitor, irreversible (general statement)
# T1 sequence (A0A3P5YAY8 entry or part of it): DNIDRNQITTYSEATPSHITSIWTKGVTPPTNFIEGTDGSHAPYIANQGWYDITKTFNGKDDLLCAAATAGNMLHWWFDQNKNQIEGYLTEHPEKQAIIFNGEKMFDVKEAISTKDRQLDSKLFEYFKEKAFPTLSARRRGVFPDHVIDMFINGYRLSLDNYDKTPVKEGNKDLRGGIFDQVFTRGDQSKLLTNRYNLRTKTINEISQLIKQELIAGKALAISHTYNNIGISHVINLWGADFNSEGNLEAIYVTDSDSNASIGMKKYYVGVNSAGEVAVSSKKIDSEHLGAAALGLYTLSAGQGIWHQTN
smiles,measurement,value
CC(C)C[C@H](NC(=O)[C@@H]1O[C@H]1C(=O)O)C(=O)NCCCCN=C(N)N [E-64],"feline and canine IgG cleavage, SDS-PAGE",the cysteine protease inhibitors Iodo and E-64 resulted in weaker cleavage product bands
